One may read the MIC as the lowest concentration that inhibits growth of the organism. Higher therefore signals weaker potency.

Values after ≈ are worked out from the molar mass of the structure shown.

Some test systems named below: Klebsiella pneumoniae; Acinetobacter baumannii; Pseudomonas aeruginosa; Bacillus megaterium Bm11; Escherichia coli; Vibrio alginolyticus; Vibrio parahaemolyticus; Aeromonas hydrophila; Vibrio fluvialis; Staphylococcus aureus; Streptococcus pyogenes.
What all share (test): ≥ marks a high value that may be exact or a test limit, other limits are often not marked, values filed in µg/mL are converted to µM
Test [1] has as its system Trichosporon beigelii KCTC 7707.
Test [2] has as its system Staphylococcus aureus CCARM 3090.
Test [3] concerns Staphylococcus aureus CCARM 3518.
Test [4] concerns Pseudomonas aeruginosa 4891.
In test [5] the test system is Escherichia coli CCARM 1229.
The subject of test [6] is Escherichia coli CCARM 1238.
Test [7] concerns Pseudomonas aeruginosa 4007.
The test system of test [8] is Candida albicans KCTC 7270.
Test [9] relates to Bacillus subtilis ATCC 6051.
Test [10] has as its system Escherichia coli ATCC 25922.
Test [11] relates to Klebsiella pneumoniae ATCC 13883.
For test [12], the system named is Klebsiella pneumoniae ATCC 700603.
The test system of test [13] is Pseudomonas aeruginosa ATCC 27853.
Test [14] deals with Cryptococcus neoformans ATCC 208821.
Test [15] concerns Candida albicans ATCC 90028.
Test [16] relates to Klebsiella pneumoniae ATCC BAA-2146.
The subject of test [17] is Acinetobacter baumannii ATCC 19606.
In test [18] the test system is Staphylococcus aureus ATCC 43300.
The test system of test [19] is Erwinia amylovora PMV 6076.
In test [20] the test system is Penicillium expansum EPS 26.
The subject of test [21] is Xanthomonas vesicatoria 2133-2.
Test [22] relates to Rhizopus stolonifer CECT 2344.
Test [23] deals with Fusarium oxysporum f. sp. lycopersici ATCC 201829.
For test [24], the system named is Aspergillus niger CECT 2694.
Test [25] relates to Pseudomonas syringae EPS 94.
Test [26] concerns Streptococcus pyogenes ATCC 49399.
In test [27] the test system is Klebsiella aerogenes ATCC 35029.
The test system of test [28] is Staphylococcus aureus ATCC 6538P.
Test [29] has as its system Enterococcus faecalis ATCC 19433.
Test [30] relates to Enterobacter cloacae ATCC 49141.

With `CC[C@H](C)[C@H](NC(=O)[C@H](C)NC(=O)[C@H](CCC(=O)O)NC(=O)[C@H](Cc1cnc[nH]1)NC(=O)[C@@H](NC(=O)[C@H](CCCCN)NC(=O)[C@H](CCC(N)=O)NC(=O)[C@H](Cc1ccccc1)NC(=O)[C@@H](NC(=O)[C@H](CCCCN)NC(=O)[C@H](CCCCN)NC(=O)[C@H](CC(C)C)NC(=O)[C@H](C)NC(=O)[C@H](CC(N)=O)NC(=O)[C@H](CC(C)C)NC(=O)CN)C(C)C)[C@@H](C)CC)C(=O)N[C@@H](CCCCN)C(=O)N[C@@H](CCCCN)C(=O)N[C@H](C(=O)N[C@@H](CC(N)=O)C(=O)N[C@@H](CC(N)=O)C(=O)N[C@@H](Cc1cnc[nH]1)C(=O)N[C@H](C(=O)N[C@@H](CCC(N)=O)C(N)=O)C(C)C)[C@@H](C)CC` [GLNALKKVFQKIHEAIKKINNHVQ], the MIC in test [1] was at least 32 µM; in test [2], 8 µM (≈ 22.2 µg/mL); in [3], 4 µM (≈ 11.1 µg/mL); in test [4], 4 µM (≈ 11.1 µg/mL); in test [5] it was 4 µM (≈ 11.1 µg/mL); in test [6], 4 µM (≈ 11.1 µg/mL). The MIC in test [7] is 2 µM (≈ 5.54 µg/mL); in test [8] it was at least 32 µM.

With `CC[C@H](C)[C@@H]1NC(=O)CNC(=O)[C@H](CCCN=C(N)N)NC(=O)[C@H](Cc2ccc(O)cc2)NC(=O)[C@H](C)NC(=O)[C@H](C(C)C)NC(=O)[C@H](CCCN=C(N)N)NC(=O)[C@H](Cc2ccccc2)NC(=O)[C@@H](NC(=O)[C@H](Cc2c[nH]c3ccccc23)NC(=O)[C@@H](N)CCCCN)CSSC[C@@H](C(=O)N[C@@H](CCCN=C(N)N)C(=O)O)NC(=O)[C@H](CCCN=C(N)N)NC(=O)[C@H](CCCN=C(N)N)NC(=O)[C@H](Cc2ccc(O)cc2)NC(=O)[C@H](C)NC1=O` [KWCFRVAYRGIAYRRCR], the minimum inhibitory concentration (MIC) stood at 0.0567 µM (≈ 0.125 µg/mL) in test [9]; 0.0567 µM (≈ 0.125 µg/mL) in test [10]; 0.113 µM (≈ 0.25 µg/mL) in test [11]; 0.907 µM (≈ 2 µg/mL) in test [12]; 0.454 µM (≈ 0.999 µg/mL) in test [13]; 0.454 µM (≈ 0.999 µg/mL) in test [14]. Further, the MIC in test [15] came to 3.63 µM (≈ 7.99 µg/mL); in [16], 0.454 µM (≈ 0.999 µg/mL); in [17], 0.113 µM (≈ 0.25 µg/mL); against Klebsiella pneumoniae, 7.26 µM (≈ 16 µg/mL); in the test on Acinetobacter baumannii it was 0.113 µM (≈ 0.25 µg/mL); against Pseudomonas aeruginosa, 0.907 µM (≈ 2 µg/mL). The MIC in test [18] came out at 0.907 µM (≈ 2 µg/mL).

As to `CC[C@H](C)[C@H](NC(=O)[C@H](CCCCN)NC(=O)[C@H](CCCCN)NC(=O)[C@H](Cc1ccccc1)NC(=O)[C@H](CC(C)C)NC(=O)[C@H](CCCCN)NC(=O)[C@@H](N)CC(C)C)C(=O)N[C@@H](CC(C)C)C(=O)N[C@@H](CCCCN)C(=O)N[C@H](C(=O)N[C@@H](CC(C)C)C(N)=O)C(C)C` [LKLFKKILKVL], the MIC in test [19] was 5.92 µM (≈ 7.94 µg/mL); in test [20], at least 35.4 µM; in test [21] it was 11 µM (≈ 14.7 µg/mL); in test [22], at least 35.4 µM; in [23] it was 0.424 µM (≈ 0.569 µg/mL); in test [24] it was 22.4 µM (≈ 30 µg/mL). In [25], this molecule had an MIC of 5.92 µM (≈ 7.94 µg/mL).

`CC[C@H](C)[C@H](NC(=O)[C@H](Cc1c[nH]c2ccccc12)NC(=O)[C@H](Cc1ccccc1)NC(=O)[C@@H]1CCCN1C(=O)[C@H](CCCN=C(N)N)NC(=O)[C@@H](N)CCCN=C(N)N)C(=O)N[C@H](C(=O)N[C@@H](CCCN=C(N)N)C(=O)N[C@@H](CCCN=C(N)N)C(N)=O)[C@@H](C)CC` [RRPFWIIRR]: the MIC in test [26] is 10 µM (≈ 13 µg/mL); in test [10] it was 80 µM (≈ 104 µg/mL); in test [27], at least 80 µM; in test [28], at least 80 µM; in test [13], above 80 µM; against Bacillus megaterium Bm11, 1.25 µM (≈ 1.62 µg/mL). Also, the MIC in test [29] and in test [30] was at least 80 µM in each case.

Turning to `CC[C@H](C)[C@H](NC(=O)[C@H](CC(N)=O)NC(=O)[C@H](CC(=O)O)NC(=O)[C@H](Cc1ccc(O)cc1)NC(=O)[C@@H](NC(=O)[C@H](CCCCN)NC(=O)[C@H](Cc1cnc[nH]1)NC(=O)[C@H](CC(C)C)NC(=O)[C@H](CC(C)C)NC(=O)[C@H](Cc1ccccc1)NC(=O)[C@H](CC(N)=O)NC(=O)[C@@H](N)C(C)C)[C@@H](C)CC)C(=O)N[C@@H](CCCN=C(N)N)C(=O)N[C@@H](Cc1ccc(O)cc1)C(=O)N[C@@H](CO)C(=O)O` [VNFLLHKIYDNIRYS], the MIC was 4.12 µM (≈ 7.8 µg/mL) in the test on Escherichia coli; at least 132 µM against Vibrio alginolyticus; at least 33 µM against Vibrio parahaemolyticus; 8.23 µM (≈ 15.6 µg/mL) in the test with Aeromonas hydrophila; at least 132 µM in the test on Vibrio fluvialis; above 132 µM against Staphylococcus aureus. Also, the MIC with Streptococcus pyogenes was at least 33 µM.

The values above are taken from DBAASP.
